Reference: patent publication US7390806B2, “Antibiotics containing borinic acid complexes and methods of use” (Anacor Pharmaceuticals, Inc., priority 2002, dated 2008)
In brackets after ≈: the same amount, converted by molar mass. Like-named read-outs stand apart in the source and are kept apart here.

How the values were obtained:
[1] = test system: E. faecium CT-26; experiment: MIC determination, E. faecium CT-26; format: cell-based, Enterococcus faecium; settings: for MIC E. faecium CT-26: Table 2; for MIC: Enterococcus faecium, CT26, Table 2, read-out: MIC E. faecium CT-26
[2] = test system: S. pneumoniae ATCC 6301; experiment: MIC determination, S. pneumoniae ATCC 6301; format: cell-based, Streptococcus pneumoniae; settings: for MIC S. pneumonia ATCC 6301: Table 2; for MIC: Streptococcus pneumoniae, ATCC6301, Table 2, read-out: MIC S. pneumonia ATCC 6301
[3] = test system: E. faecalis ATCC 29212; experiment: MIC determination, E. faecalis ATCC 29212; format: cell-based, Enterococcus faecalis; settings: for MIC E. faecalis ATCC 29212: Table 2; for MIC: Enterococcus faecalis, read-out: MIC E. faecalis ATCC 29212
[4] = test system: S. aureus ATCC 29213; experiment: MIC determination, S. aureus ATCC 29213; format: cell-based, Staphylococcus aureus; settings: for MIC S. aureus ATCC 29213: Table 2; for MIC: Staphylococcus aureus, read-out: MIC S. aureus ATCC 29213
[5] = test system: H. influenzae ATCC 49766; experiment: MIC determination, H. influenzae ATCC 49766; format: cell-based, Haemophilus influenzae; settings: Table 2; for MIC: Haemophilus influenzae, ATCC49766
[6] = test system: S. epidermidis ATCC 12228; experiment: MIC determination, S. epidermidis ATCC 12228; format: cell-based, Staphylococcus epidermidis; settings: for MIC S. epidermidis ATCC 12228: Table 2; for MIC: Staphylococcus epidermidis, read-out: MIC S. epidermidis ATCC 12228

Structure (SMILES)	MIC E. faecium CT-26 [1]	MIC S. pneumonia ATCC 6301 [2]	MIC E. faecalis ATCC 29212 [3]	MIC S. aureus ATCC 29213 [4]	MIC H. influenzae ATCC 49766 [5]	MIC S. epidermidis ATCC 12228 [6]	MIC [1]	MIC ([3]; ATCC29212, Table 2)	MIC ([4]; ATCC29213, Table 2)	MIC [5]	MIC ([6]; ATCC12228, Table 2)	MIC [2]	MIC ([3]; ATCC29212, Table 1)	MIC ([4]; ATCC29213, Table 1)	MIC ([6]; ATCC12228, Table 1)
CC1(C)O[B-](c2ccc(Cl)cc2)(c2ccc(Cl)cc2)[n+]2cccc(O)c21 [Compound 103]	1 micrograms per ml	0.5 micrograms per ml	4 micrograms per ml	0.25 micrograms per ml	64 micrograms per ml	0.5 micrograms per ml									
O=C(O)c1ncccc1O [Compound 112, 3-hydroxypicolinic acid]	8 micrograms per ml		4 micrograms per ml	4 micrograms per ml	64 micrograms per ml	2 micrograms per ml									
O=C(O)Cc1ccccn1 [Compound 106, 2-pyridylacetic acid]							64 µg/mL (≈ 467 µM)	64 µg/mL (≈ 467 µM)	0.5 µg/mL (≈ 3.65 µM)	64 µg/mL (≈ 467 µM)	4 µg/mL (≈ 29.2 µM)				
OCc1ccccn1 [Compound 105, 2-hydroxymethylpyridine]							32 µg/mL (≈ 293 µM)	32 µg/mL (≈ 293 µM)	0.125 µg/mL (≈ 1.15 µM)	4 µg/mL (≈ 36.7 µM)	4 µg/mL (≈ 36.7 µM)	4 µg/mL (≈ 36.7 µM)			
Clc1cccc(B(OCCc2c[nH]cn2)c2cccc(Cl)c2)c1 [Compound 121, Bis(3-Chlorophenyl)borinic acid 4-(hydroxyethyl)imidazole ester]	32 micrograms per ml	8 micrograms per ml	32 micrograms per ml	0.125 micrograms per ml	4 micrograms per ml	4 micrograms per ml									
O=C(O)c1ncccc1O [Compound 113, 3-hydroxypicolinic acid]	64 micrograms per ml		2 micrograms per ml	0.5 micrograms per ml	64 micrograms per ml	1 micrograms per ml									
O=C(O)c1ncccc1OCCN1CCOCC1 [Compound 108]							2 µg/mL (≈ 7.93 µM)	4 µg/mL (≈ 15.9 µM)	0.25 µg/mL (≈ 0.991 µM)	64 µg/mL (≈ 254 µM)	4 µg/mL (≈ 15.9 µM)				
Cc1ccc(B(OC(=O)c2ncccc2O)c2ccc(C)c(Cl)c2)cc1Cl [Compound 111, Bis(3-Chloro-4-methylphenyl)borinic acid 3-hydroxypicolinate ester]	2 micrograms per ml		2 micrograms per ml	2 micrograms per ml	64 micrograms per ml	1 micrograms per ml									
Nc1ccc(O)c(C(=O)O)n1 [Compound 122]							32 µg/mL (≈ 208 µM)	32 µg/mL (≈ 208 µM)	0.25 µg/mL (≈ 1.62 µM)	8 µg/mL (≈ 51.9 µM)	4 µg/mL (≈ 26 µM)	16 µg/mL (≈ 104 µM)			
O=C(O)c1ncccc1O [Compound 115, 3-hydroxypicolinic acid]	16 micrograms per ml	1 micrograms per ml	8 micrograms per ml	2 micrograms per ml	64 micrograms per ml	2 micrograms per ml									
O=C(O)c1ncccc1O [Compound 117, 3-hydroxypicolinic acid]	4 micrograms per ml	0.5 micrograms per ml	4 micrograms per ml	2 micrograms per ml	16 micrograms per ml	1 micrograms per ml									
O=C(O)c1ncccc1O [Compound 114, 3-hydroxypicolinic acid]	64 micrograms per ml		64 micrograms per ml	0.125 micrograms per ml	16 micrograms per ml	8 micrograms per ml									
Cc1cc(Cl)ccc1B(OC(=O)c1ncccc1O)c1ccc(Cl)cc1C [Compound 118, bis(2-methyl-4-chlorophenyl)borinic acid 3-hydroxypicolinate ester]	1 micrograms per ml	0.12 micrograms per ml	1 micrograms per ml	1 micrograms per ml	16 micrograms per ml	0.25 micrograms per ml									
Cc1ccc([B-]2(c3ccc(C)c(Cl)c3)OC(=O)c3c(OCCCC(=O)O)ccc[n+]32)cc1Cl [Compound 109]	16 micrograms per ml	4 micrograms per ml	32 micrograms per ml	1 micrograms per ml	16 micrograms per ml	4 micrograms per ml									
O=C(O)c1cccnc1C(=O)O [Compound 110, 3-carboxypicolinic acid]							8 µg/mL (≈ 47.9 µM)	8 µg/mL (≈ 47.9 µM)	0.125 µg/mL (≈ 0.748 µM)	8 µg/mL (≈ 47.9 µM)	4 µg/mL (≈ 23.9 µM)				
C[C@@H](O)[C@H]1C(=O)N2C(C(=O)O)=C(S[C@@H]3CN[C@H](C(=O)N(C)C)C3)[C@H](C)[C@H]12 [Meropenem, reference compound]								2 µg/mL (≈ 5.22 µM)	0.06 µg/mL (≈ 0.156 µM)	0.06 µg/mL (≈ 0.156 µM)	0.06 µg/mL (≈ 0.156 µM)		2 µg/mL (≈ 5.22 µM)	0.06 µg/mL (≈ 0.156 µM)	0.06 µg/mL (≈ 0.156 µM)
CC[C@H]1OC(=O)[C@H](C)[C@@H](O[C@H]2C[C@@](C)(OC)[C@@H](O)[C@H](C)O2)[C@H](C)[C@@H](O[C@@H]2O[C@H](C)C[C@H](N(C)C)[C@H]2O)[C@](C)(O)C[C@@H](C)C(=O)[C@H](C)[C@@H](O)[C@]1(C)O [Erythromycin, reference compound]								2 µg/mL (≈ 2.73 µM)	0.5 µg/mL (≈ 0.681 µM)	4 µg/mL (≈ 5.45 µM)	0.5 µg/mL (≈ 0.681 µM)		2 µg/mL (≈ 2.73 µM)	0.5 µg/mL (≈ 0.681 µM)	0.5 µg/mL (≈ 0.681 µM)
CC1(C)O[B-](c2cccc(Cl)c2)(c2cccc(Cl)c2)[n+]2cccc(O)c21 [Compound 102]	2 micrograms per ml	0.25 micrograms per ml	64 micrograms per ml	0.5 micrograms per ml	64 micrograms per ml	1 micrograms per ml									
O=C(O)c1ncccc1OCCO [Compound 107]							8 µg/mL (≈ 43.7 µM)	16 µg/mL (≈ 87.4 µM)	0.125 µg/mL (≈ 0.682 µM)	32 µg/mL (≈ 175 µM)	4 µg/mL (≈ 21.8 µM)				
O=C(O)c1ncccc1O [Compound 116, 3-hydroxypicolinic acid]	4 micrograms per ml	0.25 micrograms per ml	4 micrograms per ml	2 micrograms per ml	64 micrograms per ml	1 micrograms per ml									
CC(=O)Oc1ccc[n+]2c1C(=O)O[B-]2(c1ccc(C)c(Cl)c1)c1ccc(C)c(Cl)c1 [Compound 119]	2 micrograms per ml		2 micrograms per ml	2 micrograms per ml	64 micrograms per ml	1 micrograms per ml									
